For series [1], the system named is Candida albicans. Kind of series: Antibiofilm activity against Candida albicans CPCC400616 assessed as sessile minimum inhibitory concentration measured after 24 hrs by XTT assay. Format: functional. (In general: Formazan colour is commonly taken as a measure of viable cells.)
Series [2] has as its system Candida albicans. Kind of series: Fungicidal activity against FCZ-resistant Candida albicans 632. Format: functional.
Series [3] relates to Candida albicans. Kind of series: Antibiofilm activity against Candida albicans CPCC400616 assessed as sessile minimum inhibitory concentration measured after 1.5 hrs by XTT assay. Format: functional.
Series [4] deals with Candida albicans. Kind of series: Antifungal activity against FCZ-resistant Candida albicans CaR by CLSI based broth microdilution method. Format: functional. On the technique in general: Dilution methods test growth across graded concentrations, often in twofold steps.
A short description of series [5]: Metabolic stability in mouse liver microsome assessed as half life. Format: ADME. The note with it: liver microsomes. (In general: Liver microsomes are a subcellular fraction often used to study metabolism.)
Series [6] can be described thus: Acute toxicity in water diet-fed Kunming mouse assessed as animal death at 500 mg/kg, IG measured for 7 days. Format: organism-based. The note with it: in vivo, po, 168 h, time 7 day.
For series [7], the target named is T1, Lanosterol 14-alpha demethylase (Candida albicans (strain SC5314 / ATCC MYA-2876) (Yeast), UniProt P10613). Kind of series: Inhibition of CYP51 of Candida albicans ATCC SC5314 assessed as increase in obtusifoliol level at 4 ug/ml incubated for 16 hrs by GC-MS analysis (reference value: 0 %). Details: scale not given: the % may be the effect or the level left. The note with it: at 4 µg/mL.
T1 sequence (P10613 whole entry): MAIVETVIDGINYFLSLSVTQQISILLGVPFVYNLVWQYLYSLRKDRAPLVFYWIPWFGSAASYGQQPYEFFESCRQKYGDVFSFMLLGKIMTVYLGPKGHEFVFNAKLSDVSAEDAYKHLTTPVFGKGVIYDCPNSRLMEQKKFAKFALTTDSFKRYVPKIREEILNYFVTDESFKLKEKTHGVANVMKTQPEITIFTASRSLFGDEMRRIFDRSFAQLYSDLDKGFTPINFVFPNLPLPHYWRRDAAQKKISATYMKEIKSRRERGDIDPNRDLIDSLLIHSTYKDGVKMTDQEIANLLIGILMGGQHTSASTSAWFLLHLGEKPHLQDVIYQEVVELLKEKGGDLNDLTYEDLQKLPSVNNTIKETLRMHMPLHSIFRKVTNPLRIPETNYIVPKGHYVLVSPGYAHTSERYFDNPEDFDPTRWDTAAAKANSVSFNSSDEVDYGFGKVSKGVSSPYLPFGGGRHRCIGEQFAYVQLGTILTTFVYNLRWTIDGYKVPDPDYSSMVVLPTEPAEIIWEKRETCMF

Series [8] is described as follows: Cytotoxicity against human MDA-MB-231 cells by MTT assay. Format: toxicity, cell-based.
The subject of series [9] is Candida albicans. Kind of series: Antifungal activity against FCZ-resistant Candida albicans 17# by CLSI based broth microdilution method. Format: functional.
In series [10] the test system is Candida albicans. Kind of series: Antifungal activity against Candida albicans ATCC SC5314 infected in mouse model assessed as reduction in kidney fungal burden at 6 to 12 mg/kg, ip measured after 5 consecutive days by colony forming unit assay. Format: functional, organism-based. Particulars: dose 6-12 mg/kg, time 5.0 day.
The nature of series [11]: Subacute toxicity in water diet-fed Kunming mouse assessed as animal death at 100 to 200 mg/kg, IG measured after 7 to 14 days of continuous administration. The note with it: in vivo, po, dose lower 100 mg/kg, time lower 7 day, dose upper 200 mg/kg, time upper 14 day. Format: organism-based.
The target in series [12] is T1, Lanosterol 14-alpha demethylase. Kind of series: Inhibition of CYP51 of Candida albicans ATCC SC5314 assessed as increase in lanosterol level at 8 ug/ml incubated for 16 hrs by GC-MS analysis (reference value: 1.7 %). More on the design: scale not given: the % may be the effect or the level left. The note with it: at 8 µg/mL.
Series [13] has the same target. Kind of series: Inhibition of CYP51 of Candida albicans ATCC SC5314 assessed as decrease in ergosterol level by measuring residual activity at 1 ug/ml incubated for 16 hrs by GC-MS analysis (reference value: 98.3 %). Particulars: at 1 µg/mL.
Series [14] relates to Candida albicans. Kind of series: Fungicidal activity against FCZ-resistant Candida albicans 904. Format: functional.

The MFC is the smallest concentration meeting the test's criterion for killing the fungus. One may read the MIC as the smallest concentration in the dilution series that meets the test's criterion for growth inhibition. One may read the half-life as the time in which the quantity being followed falls by half. Usually IC50 stands for the midpoint of a concentration-inhibition curve.

≈ marks a conversion by molar mass, not a printed value. Calls of active or inactive are those of the source.

`Clc1ccc(C(Cn2ccnc2)[Se][Se]C(Cn2ccnc2)c2ccc(Cl)cc2Cl)c(Cl)c1` (stereo unspecified): the MIC50 with Candida albicans [1] stood at 4 µg/mL (≈ 6.27 µM); with Candida albicans [3], 0.5 µg/mL (≈ 0.784 µM). Also, the MIC80 worked out at 4 µg/mL (≈ 6.27 µM) in the series with Candida albicans [1] and 2 µg/mL (≈ 3.13 µM) in the series on Candida albicans [3]. Besides, the values for the MFC in the series with Candida albicans [2] and in the series on Candida albicans [14] were 16 µg/mL (≈ 25.1 µM) and 4 µg/mL (≈ 6.27 µM), respectively. In addition, the minimum inhibitory concentration (MIC) in the series with Candida albicans [4] was determined as 2 µg/mL (≈ 3.13 µM); against Candida albicans [9], 8 µg/mL (≈ 12.5 µM). Besides, in series [5], the half-life came out at 41.1 min. The Activity result in [6] is listed as “Non-Toxic”; in series [7], 13.5%; in [11] it was “Non-Toxic”; in series [12], 16.7%; in [13], 24.4%. This compound displayed an IC50 in [8] of 6.25 µM. The result with Candida albicans [10] was Active.

The values above are taken from ChEMBL document CHEMBL5352410, “Discovery of novel selenium-containing azole derivatives as antifungal agents by exploiting the hydrophobic cleft of CYP51” (Eur J Med Chem, 2022).
